The record followed here is patent publication US7972785B2, “Biomarkers for liver fibrotic injury” (Industrial Technology Research Institute (ITRI), priority 2006, dated 2011).

Experiment [1] relates to Tgfβ1, Timp1, Timp2, Mmp3, Ggtp mRNA in rat liver. In words: Q-RT-PCR of liver mRNA in DMN-treated rats. It is filed as in vivo. Here is the method:
To gain additional information about the established animal model, Q-RT-PCR was used to evaluate the gene expression profile of transforming growth factor-1 (Tgfβ1), which is the strongest known inducer of fibrogenesis in the effector cells of hepatic fibrosis that can stimulate the adipocyte transformation (24-27). The same total RNA samples were used for both microarray and Q-RT-PCR analyses. RNA preparation and analysis were performed according to Affymetrix's (Santa Clara, Calif., U.S.A.) instructions. The TAQMAN® assays were conducted in triplicate for each sample, and a mean value was used for calculation of expression levels. To standardize the quantification of the target genes, 18S ribosomal RNA (18S rRNA) from each sample was quantified on the same plate with the target genes. […] The changes were in agreement with observations described in Jezequel A. M. et al. (14). In sum, these examinations support the DMN-induced rat hepatic fibrosis model.
To validate the microarray data, Q-RT-PCR analysis was performed for tissue inhibitor of metalloproteinase 1 (Timp1), tissue inhibitor of metalloproteinase 2 (Timp2), matrix metalloproteinase 3 (Mmp3) and gamma-glutamyl transpeptidase (Ggtp). These genes were chosen for validation because these genes occurred both in this GeneChip study and in previous studies.
Moreover, a good concordance based on the fold changes between microarray data and Q-RT-PCR results was observed. […] TAQMAN® assays were conducted in triplicate for each sample, and a mean value was used for calculation of expression levels (marked by the square). To standardize the quantification of the Timp1 transcript, 18S rRNA from each sample was quantified on the same plate as the target gene, as indicated by the log scale on the right side of plot. The expression levels of the two Timp1 transcripts, rc_AI169327_at and rc_AI169327_g_at (marked by a circle and a triangle, respectively), were set forth relative to the mean of all gene expression levels as indicated by the scale on the left side of plot.

For experiment [2], the system named is rat liver proteins (vimentin, fibrinogen). In words: iTRAQ proteomics / Western blot of liver protein of DMN-treated rats. It is filed as in vivo. To be noted: DMN-induced rats. As to the method:
The liver tissues of 6 control and 6 DMN-treated rats were used to perform duplicate iTRAQ labeling experiments. Liver tissue was frozen in liquid nitrogen and then pulverized to powder using a mortar and pestle pre-cooled with liquid nitrogen. Then, the liquid nitrogen was allowed to evaporate, and the powdered tissue was separated into tubes and stored at −80° C. Twenty volumes (w/v) of lysis buffer (containing 2% (w/v) SDS in 20 mM phosphate buffer at pH 7.6) was added to the powdered tissue and incubated at room temperature for 1 hour. […]
The total protein contents were determined using the Coomassie Plus Protein Assay Reagent (PIERCE, Rockford, Ill., U.S.A.). […]
Peptides with different isobaric tags were pooled and acidified by mixing with 10 mM phosphoric acid (in 25% (v/v) acetonitrile and 75% H2O) to a total volume of 4.0 mL for strong cation exchange (SCX) chromatography. […] The desalted peptide from each SCX fraction was dried by speed vacuuming centrifugation and then analyzed by nanoLC hybrid mass spectrometry. […] MS/MS mass spectra were analyzed in continuous flow mode with a […] I.D. fused silica tip. MS/MS spectra were analyzed against rat.fasta databases from NCBI by ProQUANT 2.0 (Applied Biosystems/MDS Sciex, Foster City, Calif., U.S.A.). […] Relative quantification of peptide was performed on the MS/MS scans, using ratio of the areas under the peaks. […]

[3] abbreviates: Q-RT-PCR, DMN-treated samples, data not shown.

In the case of `CN(C)N=O` [DMN, Dimethylnitrosamine], the “Tgfβ1 mRNA expression in liver vs controls” value in experiment [1] (Q-RT-PCR, DMN-treated rat livers) is given as “higher level of mRNA expression”. In addition, in experiment [1] (setting [3]), the Ggtp expression result is on record as “elevated”, the Mmp3 expression result is “elevated” and the Timp2 expression entry was “elevated”. The “Timp1 expression elevation in DMN-treated rats” value in experiment [1] (both microarray and Q-RT-PCR experiments) is recorded as “over 20 fold”. Further, in experiment [2], the Fibrinogen protein expression result is given as “up-regulated”.
